Experimental data taken from article PMC4128473 (Bioorganic & medicinal chemistry, 2014).

Target: T1, hA3AR (Homo sapiens, UniProt P0DMS8)
T1 sequence (P0DMS8 1-318): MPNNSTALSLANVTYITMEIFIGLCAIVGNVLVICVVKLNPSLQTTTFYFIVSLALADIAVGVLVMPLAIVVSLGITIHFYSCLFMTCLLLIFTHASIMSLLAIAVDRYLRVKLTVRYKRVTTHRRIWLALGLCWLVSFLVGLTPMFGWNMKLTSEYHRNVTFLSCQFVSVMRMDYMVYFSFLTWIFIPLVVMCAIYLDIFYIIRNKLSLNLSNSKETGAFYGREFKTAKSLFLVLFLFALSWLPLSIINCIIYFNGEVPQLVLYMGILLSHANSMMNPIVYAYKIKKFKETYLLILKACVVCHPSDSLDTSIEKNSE
Format: cell-based
Settings: compared to Cl-IB-MECA as reference full agonist

Compound	functional behaviour at hA3AR (cAMP assay)
COc1ccc(Cl)cc1CNc1ncnc2c1ncn2[C@@H]1OC[C@](O)(CO)[C@H]1O [10c, 1′-[N^6-(2-Methoxy-5-chlorobenzyl)-adenin-9-yl]-β-D-apio-D-furanose]	inactive
COc1ccc(Cl)cc1CNc1ncnc2c1ncn2[C@@H]1OC[C@@](O)(CO)[C@H]1O [11c, 1′-[N^6-(2-Methoxy-5-chlorobenzyl)adenin-9-yl]-α-D-apio-L-furanose]	partial agonist
